Test results from ChEMBL document CHEMBL2057146, “Improvement by sodium dl-α-tocopheryl-6-O-phosphate treatment of moisture-retaining ability in stratum corneum through increased ceramide levels” (Bioorg Med Chem, 2012).

Legend:
[1] = system: Homo sapiens; assay: Increase in ceramide content in human skin at 2% administered topically after 4 weeks relative to vehicle treated control; assay type: functional
[2] = system: Homo sapiens; assay: Increase in ceramide content in human skin at 4% administered topically after 4 weeks relative to vehicle treated control; assay type: functional
[3] = system: Keratinocyte; assay: Increase in ceramide content in normal human keratinocytes at 1 to 30 uM after 6 days relative to vehicle treated control; assay type: functional
[4] = Upregulation of SPTLCB1 mRNA expression in neonatal human foreskin keratinocytes at 10 uM after 4 days relative to vehicle treated control; assay type: functional, cell-based; conditions: Keratinocyte
[5] = Upregulation of SPTLCB2 mRNA expression in neonatal human foreskin keratinocytes at 10 uM after 4 days relative to vehicle treated control; assay type: functional, cell-based; conditions: Keratinocyte
[6] = system: Mus musculus; assay: Increase in ceramide content in hairless mouse skin at 1% w/v administered topically after 30 hrs relative to vehicle treated control; assay type: functional
[7] = system: Homo sapiens; assay: Increase in ceramide content in human skin at 0.3 to 1% administered topically after 11 days relative to vehicle treated control; assay type: functional
[8] = system: Keratinocyte; assay: Increase in ceramide content in keratinocytes at 1% after 6 days relative to vehicle treated control; assay type: functional
[9] = system: Keratinocyte; assay: Increase in ceramide content in keratinocytes at […] after 24 hrs relative to vehicle treated control; assay type: functional
[10] = system: Mus musculus; assay: Increase in ceramide content in hairless mouse skin at 1% v/v administered topically after 4 weeks relative to vehicle treated control; assay type: functional

NC(=O)c1cccnc1 [NIACINAMIDE]
fold change (FC) [1]: 1.4
fold change (FC) [2]: 1.4
fold change (FC) [3]: 4.1
fold change (FC) [4]: 1.8
fold change (FC) [5]: 1.8

O=C1CCCCCCCCCCCC(=O)OCCO1
fold change (FC) [6]: 1.3

C[C@H]1[C@H](C)CC[C@]2(C(=O)O)CC[C@]3(C)C(=CC[C@@H]4[C@@]5(C)CC[C@H](O)C(C)(C)[C@@H]5CC[C@]43C)[C@H]12 [URSOLIC ACID]
fold change (FC) [7]: 1.3
fold change (FC) [8]: 2.2

CC(O)C(=O)O (configuration not stated) [LACTIC ACID]
fold change (FC) [1]: 1.4
fold change (FC) [2]: 1.4
fold change (FC) [9]: 4.3

CCO[C@H]1O[C@H](CO)[C@@H](O)[C@H](O)[C@H]1O
fold change (FC) [10]: 1.1
